Among the data in ChEMBL document CHEMBL3769353, “Novel indole-based melatonin analogues: Evaluation of antioxidant activity and protective effect against amyloid β-induced damage” (Bioorg Med Chem, 2016) are Activity, inhibition and IC50 values, retold here.

Activity calls are given as the source filed them. No cut-off for these calls is given here.

Series [1] concerns Erythrocyte. Kind of series: Antioxidant activity in human erythrocytes assessed as ROS induced DCFH-DA oxidation at 100 uM by fluorescence analysis in presence of 10 uM of H2O2. Type of series: functional, cell-based.
Series [2] is described as follows: Cytotoxicity against CHOK1 cells assessed as LDH leakage at 10 uM by spectrophotometric analysis. It counts as cell-based, Cricetulus griseus. As to conditions: chinese hamster, cho-k1, 10 µM.
Series [3] concerns Erythrocyte. Kind of series: Antioxidant activity in human erythrocytes assessed as ROS induced DCFH-DA oxidation at 10 uM by fluorescence analysis in presence of 10 uM of H2O2. It counts as functional, cell-based.
The nature of series [4]: Antioxidant activity in rat PC12 cells assessed as inhibition of amyloid beta (25 to 35 amino acid residues) induced ROS generation at 50 uM preincubated overnight followed by addition of amyloid beta (25 to 35 amino acid residues) measured after 120 mins by DCFH-DA-based fluorescence assay. Type of series: functional. The following applies: PC-12.
The nature of series [5]: Cytotoxicity against rat PC12 cells at 100 uM. The following applies: pc-12, 100 µM. Type of series: cell-based.
Series [6] concerns PC-12. Kind of series: Neuroprotective activity against amyloid beta (25 to 35 amino acid residues) induced damage in rat PC12 cells assessed as cell viability preincubated for 3 hrs followed by addition of amyloid beta (25 to 35 amino acid residues) for 24 hrs by MTT assay. It counts as functional, cell-based.

For `Fc1ccc(-c2[nH]c3ccccc3c2/C=N/Nc2ccc(Cl)cc2Cl)cc1`, the result in series [1] and in series [3] was Active. Besides, the Activity entry in series [2] and in series [5] was “Non-toxic” in each case. For the same compound, the inhibition at 50 µM in series [4] worked out at 83.8%. Moreover, the half-inhibitory concentration (IC50) in series [6] is 51.5 µM.

In the case of `Fc1ccc(-c2[nH]c3ccccc3c2/C=N/Nc2cccc(Br)c2)cc1`, the outcome in series [1] and in series [3] was Active. Also, the Activity entry in series [2] and in series [5] was “Non-toxic” each time.

Consider `Fc1ccc(-c2[nH]c3ccccc3c2/C=N/Nc2cc(F)cc(F)c2)cc1`, for which the result in series [1] and in series [3] was Active. In addition, the Activity entry in series [2] and in series [5] was “Non-toxic” in each case. Further, the inhibition at 50 µM in series [4] came to 86.4%. Also, the concentration for half-maximal inhibition (IC50) in series [6] was found to be 34.3 µM.

Consider `Fc1ccc(-c2[nH]c3ccccc3c2/C=N/Nc2ccccc2F)cc1`, for which the result in series [1] and in series [3] was Active. The Activity result in series [2] and in series [5] was “Non-toxic” each time. Further, the inhibition at 50 µM in series [4] came out at 88.1%. Besides, the concentration for half-maximal inhibition (IC50) in series [6] stood at 64.1 µM.

In the case of `Fc1ccc(N/N=C/c2c(-c3ccc(F)cc3)[nH]c3ccccc23)cc1`, the Activity result in series [2] and in series [5] was “Non-toxic” each time. In addition, in series [3], the result was inactive. Besides, the inhibition at 50 µM in series [4] came out at 74%. The half-maximal inhibitory concentration (IC50) in series [6] was more than 100 µM.

In the case of `Fc1ccc(-c2[nH]c3ccccc3c2/C=N/Nc2ccccc2Br)cc1`, the result in series [1] and in series [3] was Active. The Activity result in series [2] and in series [5] was “Non-toxic” in each case. Also, in series [4], the inhibition at 50 µM was 95.5%. Besides, the half-maximal inhibitory concentration (IC50) in series [6] stood at 37 µM.

In the case of `Fc1ccc(-c2[nH]c3ccccc3c2/C=N/Nc2ccc(Cl)cc2)cc1`, the outcome in series [1] and in series [3] was Active. The Activity entry in series [2] and in series [5] was “Non-toxic” in each case. Besides, the inhibition at 50 µM in series [4] worked out at 49.7%. Moreover, in series [6], the 50% inhibitory concentration (IC50) came out at 73.9 µM.

For the compound `Fc1ccc(-c2[nH]c3ccccc3c2/C=N/Nc2ccccc2Cl)cc1`, the outcome in series [1] and in series [3] was Active. Also, the Activity entry in series [2] and in series [5] was “Non-toxic” throughout. Besides, the inhibition at 50 µM in series [4] was determined as 44.1%. For the same compound, the half-maximal inhibitory concentration (IC50) in series [6] was 38.3 µM.

As for `COc1ccc(C(=O)N/N=C/c2c(-c3ccc(F)cc3)[nH]c3ccccc23)cc1`, the Activity entry in series [2] and in series [5] was “Non-toxic” throughout. Also, the result in series [3] was inactive. In addition, the inhibition at 50 µM in series [4] amounted to 19.2%. Moreover, in series [6], the IC50 was more than 100 µM.

On to `Fc1ccc(-c2[nH]c3ccccc3c2/C=N/Nc2ccc(Cl)c(Cl)c2)cc1`, for which the outcome in series [1] and in series [3] was Active. Further, the Activity entry in series [2] and in series [5] was “Non-toxic” in each case. Also, in series [4], the inhibition at 50 µM is 71.2%. Further, the 50% inhibitory concentration (IC50) in series [6] is 65.7 µM.

Consider `Fc1ccc(-c2[nH]c3ccccc3c2/C=N/Nc2cccc(Cl)c2)cc1`, for which the result in series [1] and in series [3] was Active. Also, the Activity entry in series [2] and in series [5] was “Non-toxic” in each case. The inhibition at 50 µM in series [4] worked out at 54.6%. Moreover, the concentration for half-maximal inhibition (IC50) in series [6] amounted to 44 µM.

Take `Fc1ccc(-c2[nH]c3ccccc3c2/C=N/Nc2cccc(F)c2)cc1`: the outcome in series [1] and in series [3] was Active. Also, the Activity entry in series [2] and in series [5] was “Non-toxic” throughout. For the same compound, the inhibition at 50 µM in series [4] came to 77.8%. The IC50 in series [6] was 54.4 µM.

For the compound `COc1ccc2[nH]cc(CCNC(C)=O)c2c1` [MELATONIN], the inhibition at 50 µM in series [4] was 49.9%. In addition, the Activity entry in series [5] was “Non-toxic”. In addition, the half-inhibitory concentration (IC50) in series [6] was more than 100 µM.

On to `Fc1ccc(-c2[nH]c3ccccc3c2/C=N/Nc2cc(Cl)ccc2Cl)cc1`, for which the result in series [1] and in series [3] was Active. For the same compound, the Activity entry in series [2] and in series [5] was “Non-toxic” in each case. Moreover, the inhibition at 50 µM in series [4] amounted to 59.2%. In addition, the IC50 in series [6] amounted to 39 µM.

With `Fc1ccc(-c2[nH]c3ccccc3c2/C=N/Nc2ccc(F)cc2F)cc1`, the result in series [1] and in series [3] was Active. Besides, the Activity result in series [2] and in series [5] was “Non-toxic” throughout. In series [4], the inhibition at 50 µM stood at 74.9%. Also, in series [6], the IC50 worked out at 50.4 µM.
